Assay results reported in PMC7018803, “A randomized, placebo-controlled, phase 1 study to evaluate the effects of TAK-063 on ketamine-induced changes in fMRI BOLD signal in healthy subjects” (Psychopharmacology, 2019).

Experiments:
healthy male subjects = experiment: Ketamine-induced changes in fMRI BOLD signal during resting state; type: in vivo, human
Protocol: (§1) Subjects checked in on day − 1 of each treatment period during which vital signs, electrocardiogram (ECG), and laboratory safety tests were repeated. On day 1 of each treatment period, subjects received a 3-, 10-, or 30-mg TAK-063 dose or placebo tablets. Participants then relaxed, slept, or watched movies while remaining in the research environment. Ketamine (0.12 mg/kg intravenous bolus over 60 s followed by a continuous infusion of 0.31 mg/kg/h over approximately 150 min) was administered 4 h after TAK-063 or placebo (Fig. 1). This ketamine dose was based on a previous study that achieved steady-state concentrations of 75 ng/mL and provided a robust BOLD signal with minimal psychotomimetic symptoms (De Simoni et al. [2013]).
The scanning protocol for the current study was very comprehensive and included multiple MR approaches. This publication reports the BOLD fMRI data for the working memory task, but also resting state fMRI. The magnetic scanning portion of the neuroimaging test battery was initiated 20 min before ketamine dosing. Imaging was performed using a 3 Tesla Siemens Trio scanner. The MR scanning protocol was initiated 20 min before ketamine dosing; prior to scanning, a structural magnetization prepared rapid gradient echo (MPRAGE) scan was collected. As part of the scanning protocol, each subject received 20 min of scanning − 10 min arterial spin labeling (ASL) plus 10 min resting BOLD prior to ketamine infusion. After ketamine infusion, the resting state fMRI BOLD acquisition continued for an additional 10 min. Next, a Spatial Working Memory task-induced fMRI BOLD acquisition was performed for 15 min. Following these BOLD acquisitions, another 10 min ASL scan was acquired and a 10-min T1 relaxometry scan was conducted. The MR scanning sequence ended with a 5-min MPRAGE acquisition.
Fifty sequential gradient-echo echoplanar images (EPIs) sensitive to blood oxygenation level-dependent (BOLD) signal were collected in contiguous slices of 6-mm thickness, with 3000-ms repetition time, 40-ms echo time, 20 × 20-cm field of view, a 64 × 64 image matrix, 70° flip angle, and an in-plane resolution of 3 × 3 mm. A working memory challenge based on the expectancy A-X Continuous Performance Test (AX-CPT) paradigm was presented. The AX-CPT task was implemented in Eprime and presents 144 trials in four blocks of 36 trials. Before scanning, participants practiced the task (Barch et al. [2001]; MacDonald et al. [2003]).
We conducted a number of pre-processing steps to standardize examination of data after acquisition. These steps included (a) using the anatomical image (T1 weighted MPRAGE acquired for each subject at the beginning of the imaging session) to determine the parameters for spatial normalization to the EPI template image supplied with statistical parametric mapping (SPM) using a 12-parameter transformation; (b) registering functional images to correct for subject movement during the experimental paradigm; (c) normalizing functional images to transform images from analyzed subjects into the same standard space; (d) smoothing images (8-mm full width at half maximum [FWHM]) to minimize normalization artifacts and improve signal to noise ratio; (e) applying a high pass filter of 1200 s to the data following spatial smoothing to minimize the influence of very low frequency noise present in fMRI BOLD data without distorting the ketamine response profile. […]

[1] = Plasma ketamine concentrations during intravenous bolus plus continuous infusion; type: in vivo; settings: human
Protocol: as §1
Blood samples were collected for the determination of TAK-063 and ketamine concentrations, and ketamine concentrations were used to verify intravenous delivery of ketamine. Blood samples for determination of TAK-063 concentration were collected at pre-dose and at 0.5, 2, 3, 4.5, 6, 8, 10, 12, and 24 h post dose. Blood samples for determination of ketamine concentration were collected at 0.5, 1, 2, and 2.5 h after administration of ketamine. The target ketamine concentration was established at 75 ng/mL. PK samples were not collected from the arm in which ketamine was administered.

[2] = 0.12 mg/kg iv bolus then 0.31 mg/kg/h infusion; ref De Simoni et al. [2013]; cited from earlier work
healthy human subjects = settings: cited from earlier work

Structure (SMILES) | activation in ROIs (healthy male subjects; percent BOLD signal change, resting state (Fig. 7)) | effect on fMRI BOLD resting signal (healthy male subjects; placebo group, most regions studied) | effect on fMRI BOLD in cingulate/BA25 (healthy male subjects; placebo group, resting state) | concentration at 30 min ([1]; 30 min post dose, with placebo or TAK-063 3 to 30 mg, range of means) [ng/mL] | Cmax ([1]; during continuous infusion, range of means across regimens) [ng/mL] | Tmax ([1]; range across regimens) [h] | steady-state concentration [2] [ng/mL] | ketamine-induced changes in BOLD signal (healthy human subjects; ref Doyle et al. [2013], Shcherbinin et al. [2015]) | ketamine-induced changes in brain perfusion (ASL) (healthy human subjects; ref Shcherbinin et al. [2015])
CNC1(c2ccccc2Cl)CCCCC1=O (stereo not drawn) [ketamine] | increased activation in all ROIs examined | increased fMRI BOLD resting signal | decrease in fMRI BOLD | 69.9 to 83.3 | 168 to 179 | 2.3 to 2.5 | 75 |  | 
Cc1nc2n(c(=O)c1CCN1CCC(c3noc4cc(F)ccc34)CC1)CCCC2 [risperidone] |  |  |  |  |  |  |  | reversed | increased ketamine-induced perfusion changes
